Laboratory results taken from patent US10206921B2, “Methods and compositions for treating a subject for central nervous system (CNS) injury” (THE REGENTS OF THE UNIVERSITY OF CALIFORNIA, priority 2009, dated 2019).
Entries after “also recorded” stand apart in the source; their conditions may differ.

What was measured:
α5GABAA receptor = molecular target: T1, α5GABAA receptor (Mus musculus, UniProt P22723+Q8BHJ7); assay: Whole-cell patch-clamp of tonic inhibition (Itonic) in brain slices with L655,708; format: cell-based
T1 construct: Whole-cell patch-clamp recordings were made from post-stroke brain slices; from tissue; host or cells: brain slices, peri-infarct motor cortex, layer 2/3 pyramidal neurons
T1 sequence (Q8BHJ7 32-463 limits assumed): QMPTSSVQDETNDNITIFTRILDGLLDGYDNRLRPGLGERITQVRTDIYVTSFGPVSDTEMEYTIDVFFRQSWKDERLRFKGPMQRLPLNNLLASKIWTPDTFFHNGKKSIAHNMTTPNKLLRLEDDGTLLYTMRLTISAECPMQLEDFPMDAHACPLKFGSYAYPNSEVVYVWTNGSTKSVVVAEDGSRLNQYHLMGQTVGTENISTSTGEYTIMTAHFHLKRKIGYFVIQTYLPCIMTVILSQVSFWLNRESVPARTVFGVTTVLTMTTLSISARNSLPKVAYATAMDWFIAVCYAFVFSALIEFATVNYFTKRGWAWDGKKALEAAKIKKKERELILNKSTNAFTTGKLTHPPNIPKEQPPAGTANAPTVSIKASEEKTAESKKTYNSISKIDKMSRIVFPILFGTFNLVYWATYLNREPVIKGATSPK
T1 sequence (P22723 39-474): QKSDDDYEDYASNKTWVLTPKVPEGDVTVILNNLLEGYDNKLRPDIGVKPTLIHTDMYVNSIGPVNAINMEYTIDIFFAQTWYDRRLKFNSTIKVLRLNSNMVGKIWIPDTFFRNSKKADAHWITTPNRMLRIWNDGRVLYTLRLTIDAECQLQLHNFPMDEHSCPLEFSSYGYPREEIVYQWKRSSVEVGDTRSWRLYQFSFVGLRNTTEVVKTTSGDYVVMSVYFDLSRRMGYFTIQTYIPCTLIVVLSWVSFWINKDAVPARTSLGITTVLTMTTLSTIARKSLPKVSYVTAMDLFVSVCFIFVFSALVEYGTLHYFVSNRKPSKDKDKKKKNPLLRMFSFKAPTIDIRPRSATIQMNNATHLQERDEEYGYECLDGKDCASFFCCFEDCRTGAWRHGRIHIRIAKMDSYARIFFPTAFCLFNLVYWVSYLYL
T1 sequence (P63080 26-473 partner): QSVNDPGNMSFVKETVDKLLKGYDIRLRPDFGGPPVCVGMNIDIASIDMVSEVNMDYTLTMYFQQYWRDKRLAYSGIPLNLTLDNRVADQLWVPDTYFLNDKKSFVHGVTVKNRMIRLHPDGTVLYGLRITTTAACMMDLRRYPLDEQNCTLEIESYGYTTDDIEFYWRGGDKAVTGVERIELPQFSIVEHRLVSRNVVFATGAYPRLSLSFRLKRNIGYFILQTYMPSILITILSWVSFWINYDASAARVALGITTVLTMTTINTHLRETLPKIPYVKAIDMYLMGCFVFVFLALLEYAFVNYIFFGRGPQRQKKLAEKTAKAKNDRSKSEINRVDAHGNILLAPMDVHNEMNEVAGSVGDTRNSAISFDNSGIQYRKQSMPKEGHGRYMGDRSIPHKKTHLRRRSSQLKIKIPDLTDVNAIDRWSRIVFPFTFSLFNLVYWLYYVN
Description: (§1) Whole-cell patch-clamp recordings were made from post-stroke brain slices, within 200 μm of infarct (top left), from layer-2/3 (top right) pyramidal neurons (bottom panels) (FIG. 1A). Cells were voltage-clamped at +10 mV. […] FIGS. 1C and D show representative traces showing the tonic inhibitory currents in control and peri-infarct neurons, respectively.
(§2) Itonic remained elevated from 3- to 14-days post-stroke.
(§3) In post-stroke neurons, co-application only produced an effect (110.7±32.0%, n=5) similar to GAT-1 blockade alone (P<0.68; FIG. 2A), indicating a dysfunction in GAT-3/4 after stroke.

mice after stroke [1] = assay: Behavioral/functional recovery after stroke (grid-walking and cylinder tasks together); format: in vivo, mouse
Description: The GABAaα5 inverse agonist L655,708 was administered through subcutaneously implanted osmotic minipumps. Mice were tested fore- and hindlimb function before, and then at one, two, four and six weeks after stroke.
FIGS. 9A-9C illustrate behavioral recovery after stroke in young and aged animals with L655,708. […] Functional recovery was assessed behaviorally on both the gridwalking task for forelimb footfaults (FIG. 9A) and hindlimb footfaults (FIG. 9B), and on the cylinder task for forelimb asymmetry (FIG. 9C). […] On average the normal gain of function in the aged stroke+vehicle treated animals is less than that of the young stroke+vehicle treated animals. In addition, the aged stroke+L655,708 animals show slightly less improvement compared to young stroke+L655,708 animals. For instance, on the cylinder task young stroke+L655,708 animals show a 15-18% gain of function post-stroke (7 to 42-days), compared with a 13-16% gain of function post-stroke in the aged. Data is shown as mean±s.e.m. for n=8 per group for L655,708 treatment for both young and aged animals, ***=P≤0.001 for stroke+vehicle vs Sham; +=P≤0.05, ++=P≤0.001 aged stroke+L655,708 vs aged stroke+vehicle, ##=P≤0.01, #=P≤0.001 young stroke+L655,708 vs young stroke+vehicle.
Functional recovery was assessed behaviorally on both the gridwalking task for forelimb footfaults (FIG. 10A), hindlimb footfaults (FIG. 10B), and on the cylinder task for forelimb asymmetry (FIG. 10C). Data are shown as mean±s.e.m. for n=8 per group, ***=P≤0.001 for stroke+vehicle vs. Sham; ##=P≤0.01, #=P≤0.001 vs. stroke+vehicle.
Two different durations of treatment were used (2 weeks and 6 weeks after stroke. Because stroke is a disease of aging, and the clinical target of stroke is most commonly aged patients, L655,708 was tested in aged animals after stroke. At the end of behavioral testing (6 weeks after stroke) mice received mapping of the pattern of cortical connections in the motor system in peri-infarct cortex (Overman J J, Kalaria S, Overman B, Willis D, Twiss J, Wanner I B, Li S, Carmichael S T (2008) Post-stroke blockade of ephrinA5 increases axonal sprouting in the mouse somatosensory cortex. Soc Neurosci. Abst.). Axonal sprouting in this pen-infarct cortex is closely associated with functional recovery in stroke (Carmichael, '06). Therapies directed toward neural repair after stroke promote the formation of new connections in peri-infarct cortex (Overman et al., '08).
To define the total role of GABAA α5 and δ receptors in functional recovery after stroke, behavioral testing was performed on Gabra5^−/− and Gabrd^−/− mice (FIGS. 8A-8C). For both α5 and δ knockouts, the same experimental approach was utilized. Mice were tested for e- and hindlimb function before stroke. […]

mice after stroke [2] = assay: Grid-walking task after stroke in forelimb motor cortex; format: in vivo, mouse; settings: subcutaneous osmotic minipump from 3 days after stroke
Description: Stroke completely destroys the tissue in at the center of the stroke (the core) and partially damages the tissue adjacent to the infarct (Katsman D, Spinelli K, Zhang J, and Carmichael S T (2003) Tissue microenvironments within functional cortical subdivisions adjacent to focal stroke. J Cereb Blood Flow Met 23:997-1009; Carmichael S T, Archibeque I, Luke L, Nolan T, Momiy J, Li S. (2005) Growth-Associated Gene Expression after Stroke: Evidence for a growth-promoting region in peri-infarct cortex. Expt Neurol. 193:291-311), i.e., the peri-infarct region. Studies indicate that this peri-infarct region is disabled through partial damage to neuronal circuits, as described above. To model this process experimentally, a stroke model was used that produces complete damage to a part of the brain that controls forelimb use in a mouse, the forelimb motor cortex (FIGS. 5A-5B). […] The stroke destroys part of the forelimb motor cortex. The vertical line indicates site of tissue sections in the middle panel. […] The stroke damage is restricted to the cortex, with partial damage in adjacent white mater and surrounding motor areas. […] Measures of fore- and hindlimb behaviors in this model of stroke thus provide a readout of the function of partially damaged brain areas near the stroke core. […]

mice after stroke [3] = assay: Cylinder task (spontaneous forelimb use when rearing) after stroke; format: in vivo, mouse; settings: for gain of function post-stroke on the cylinder task: 7 to 42 days post-stroke
Description: Stroke completely destroys the tissue in at the center of the stroke (the core) and partially damages the tissue adjacent to the infarct (Katsman D, Spinelli K, Zhang J, and Carmichael S T (2003) Tissue microenvironments within functional cortical subdivisions adjacent to focal stroke. J Cereb Blood Flow Met 23:997-1009; Carmichael S T, Archibeque I, Luke L, Nolan T, Momiy J, Li S. (2005) Growth-Associated Gene Expression after Stroke: Evidence for a growth-promoting region in peri-infarct cortex. Expt Neurol. 193:291-311), i.e., the peri-infarct region. Studies indicate that this peri-infarct region is disabled through partial damage to neuronal circuits, as described above. To model this process experimentally, a stroke model was used that produces complete damage to a part of the brain that controls forelimb use in a mouse, the forelimb motor cortex (FIGS. 5A-5B). […] The stroke destroys part of the forelimb motor cortex. The vertical line indicates site of tissue sections in the middle panel. […] The stroke damage is restricted to the cortex, with partial damage in adjacent white mater and surrounding motor areas. This damage is seen as increased staining for GFAP (reactive astrocytes, arrows) and increased cellularity in Nissl stains (arrows). This stroke knocks out part of the forelimb motor cortex and causes partial damage to the rest of forelimb cortex and to hindlimb motor cortex. This disables fore- and hindlimb control and produces weakness in using these limbs for walking and for exploratory forelimb behaviors, (such as using the forelimb when rearing onto objects, FIGS. 6A-6C). Measures of fore- and hindlimb behaviors in this model of stroke thus provide a readout of the function of partially damaged brain areas near the stroke core.
Treatments that must be administered very early in the clinical course of stroke, such as tPA, are difficult to deliver because most patients are not in the hospital and so rapid emergency response and laboratory screening systems must be developed. […]

[4] = molecular target: T2, GABA transporters (GATs): GAT-1, GAT-3/4 (Mus musculus, UniProt P31648); assay: Whole-cell patch-clamp of tonic inhibition (Itonic) in brain slices after GAT blockade; format: cell-based; settings: NO-711 10 μM
T2 construct: Whole-cell patch-clamp recordings were made from post-stroke brain slices; from tissue; host or cells: brain slices, peri-infarct motor cortex, recordings from layer 2/3 pyramidal neurons
Description: as §1, §2, §3

GABAARs = assay: GABAAR saturation test: GABA raised in ACSF after blocking both GATs; format: cell-based, mouse; settings: GABA +10 μM in ACSF after 10 μM NO-711+40 μM SNAP-5114; control slices; n=3
Description: Whole-cell patch-clamp recordings were made from post-stroke brain slices, within 200 μm of infarct (top left), from layer-2/3 (top right) pyramidal neurons (bottom panels) (FIG. 1A). Cells were voltage-clamped at +10 mV.

CCOC(=O)c1ncn2c1[C@@H]1CCCN1C(=O)c1cc(OC)ccc1-2 [L655,708]
effect on Itonic (α5GABAA receptor; 100 nM, representative recording (FIG. 2D)): reduced Itonic | effect on post-stroke Itonic (α5GABAA receptor; post-stroke neurons, P<0.05 (FIG. 2F)): significantly decreased post-stroke Itonic, and notably reverted Itonic to near-control level | behavioral recovery after stroke, dosing duration (mice after stroke [1]; 2-week and 6-week treatment, 6-week the most significant recovery): produces behavioral recovery | functional recovery after stroke in Gabrd−/− mice (mice after stroke [1]; L655,708 given to GABAA receptor δ subunit null mutant mice): additive effect on functional recovery; also recorded: further functional recovery | functional recovery after stroke (mice after stroke [1]; treatment from 3 days after stroke, young and aged animals, FIGS. 9A-9C): increase in functional recovery in both young and aged animals | behavioral recovery after stroke, dose dependence (mice after stroke [1]; young adult and aged mice, low and high dose): promotes behavioral recovery after stroke in a dose-dependent manner | hindlimb function in the grid-walking task (mice after stroke [2]; FIG. 6B): statistically significant improvement by the 42 day testing period | forelimb function in the grid-walking task (mice after stroke [2]; approx. 200 or 400 μg/kg/day, FIG. 6A): enhanced forelimb use | gain of function post-stroke on the cylinder task (mice after stroke [3]; aged stroke animals): 13-16% | forelimb function in the cylinder task (mice after stroke [3]; subcutaneous osmotic minipump from 3 days after stroke, 7 day post-stroke test period, FIG. 6C): recovered right forelimb use very quickly | gain of function post-stroke on the cylinder task (mice after stroke [3]; young stroke animals): 15-18%

O=C(O)C1=CCCN(CCON=C(c2ccccc2)c2ccccc2)C1 [NO-711]
% Itonic increase after GAT blockade ([4]; control neurons, n=6): 34.3±11.4% | % Itonic increase after GAT blockade ([4]; post-stroke neurons, n=10): 94.0±16.3%

NCCCC(=O)O [GABA, gamma aminobutyric acid]
percent increase in Itonic (GABAARs): 25.7±15.0%
